Tests used:
[1] = biological target: GDP-bound NRAS wild-type protein (Homo sapiens, UniProt P01111); assay: Binding to NRAS by surface plasmon resonance (SPR), Single Cycle Kinetics; settings: for NRAS/KRAS (ratio of KD value with respect to GDP-bound NRAS wild-type protein to KD value with respect to KRAS): SPR KD ratio NRAS/KRAS, class symbols; for NRAS/KRAS (ratio of KD value for NRAS to KD value for KRAS): SPR, GDP-bound NRAS wild-type protein vs GDP-bound KRAS wild-type protein
[2] = biological target: GDP-bound HRAS wild-type protein (Homo sapiens, UniProt P01112); assay: Binding to HRAS by surface plasmon resonance (SPR), Single Cycle Kinetics; settings: for HRAS/KRAS (ratio of KD value with respect to GDP-bound HRAS wild-type protein to KD value with respect to KRAS): SPR KD ratio HRAS/KRAS, class symbols; for HRAS/KRAS (ratio of KD value for HRAS to KD value for KRAS): SPR, GDP-bound HRAS wild-type protein vs GDP-bound KRAS wild-type protein
Sequence of GDP-bound HRAS wild-type protein (P01112 whole entry): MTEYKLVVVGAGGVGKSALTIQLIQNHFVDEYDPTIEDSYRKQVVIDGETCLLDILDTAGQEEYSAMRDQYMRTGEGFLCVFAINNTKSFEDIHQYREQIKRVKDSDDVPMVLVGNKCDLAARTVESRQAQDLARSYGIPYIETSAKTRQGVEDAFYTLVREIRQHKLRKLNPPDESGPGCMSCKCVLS

Sequence of GDP-bound NRAS wild-type protein (P01111 whole entry): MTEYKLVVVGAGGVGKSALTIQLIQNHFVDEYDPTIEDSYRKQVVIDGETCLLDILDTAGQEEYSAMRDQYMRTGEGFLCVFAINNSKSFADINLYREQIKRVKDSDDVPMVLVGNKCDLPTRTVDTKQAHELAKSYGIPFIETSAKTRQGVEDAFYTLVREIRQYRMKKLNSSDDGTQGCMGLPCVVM

| Compound | NRAS/KRAS (ratio of KD value with respect to GDP-bound NRAS wild-type protein to KD value with respect to KRAS) [1] | HRAS/KRAS (ratio of KD value with respect to GDP-bound HRAS wild-type protein to KD value with respect to KRAS) [2] | NRAS/KRAS (ratio of KD value for NRAS to KD value for KRAS) [1] | HRAS/KRAS (ratio of KD value for HRAS to KD value for KRAS) [2] |
| --- | --- | --- | --- | --- |
| CCC[C@H]1C(=O)N[C@@H]([C@@H](C)CC)C(=O)N(C)CC(=O)N(C)[C@H]2C/C=C\CCN(C2=O)[C@@H](Cc2ccc(C(F)(F)F)cc2)C(=O)N(C)CC(=O)N[C@@H](CCc2cc(C)c(C(F)F)c(C)c2)C(=O)N2C[C@H](OCC)C[C@H]2C(=O)NC2(CC(C)(C)C2)C(=O)N(C)[C@@H](C2CCCC2)C(=O)N(C)[C@H](C(=O)N(C)C)CC(=O)N1C [PP2857] | A (a compound having 10 or more and less than 20 is denoted as A) | A (a compound having 10 or more and less than 20 is denoted as A) | – | – |
| CCOC[C@H]1C(=O)N[C@@H]([C@@H](C)CC)C(=O)N(C)CC(=O)N(C)[C@H]2C/C=C\CCN(C2=O)[C@@H](Cc2ccc(C(C)=O)cc2)C(=O)N(C)CC(=O)N[C@@H](CCc2ccc(C(F)(F)F)c(OC)c2)C(=O)N2C[C@@H](C)C[C@H]2C(=O)NC2(CC(C)(C)C2)C(=O)N(C)[C@@H](C2CCCC2)C(=O)N(C)[C@H](C(=O)N(C)CC)CC(=O)N1C [PP2703] | AA (a compound having 20 or more is denoted as AA) | A (a compound having 10 or more and less than 20 is denoted as A) | – | – |
| CCO[C@@H]1C[C@H]2C(=O)NC3(CC(C)(C)C3)C(=O)N(C)[C@@H](C(CC)CC)C(=O)N(C)[C@H](C(=O)N(C)C)CC(=O)N(C)[C@@H](C(C)C)C(=O)N[C@@H]([C@@H](C)CC)C(=O)N(C)CC(=O)N(C)[C@H]3C/C=C\CCN(C3=O)[C@@H](Cc3ccc(C)cc3)C(=O)N(C)CC(=O)N[C@@H](CCc3cc(F)c(C(F)(F)F)c(F)c3)C(=O)N2C1 [PP2153] | – | – | A (a compound having 10 or more and less than 20 is denoted as A) | A (a compound having 10 or more and less than 20 is denoted as A) |
| CC[C@H](C)[C@@H]1NC(=O)[C@H](CC(C)C)N(C)C(=O)C[C@@H](C(=O)N(C)C)N(C)C(=O)[C@H](C2CCCC2)N(C)C(=O)C2(CC(C)(C)C2)NC(=O)[C@@H]2C[C@@H](C)CN2C(=O)[C@H](CCc2cc(F)c(C(F)(F)F)c(F)c2)NC(=O)CN(C)C(=O)[C@H](Cc2ccc(C)cc2)N2CC/C=C\C[C@@H](C2=O)N(C)C(=O)CN(C)C1=O [PP2223] | – | – | A (a compound having 10 or more and less than 20 is denoted as A) | A (a compound having 10 or more and less than 20 is denoted as A) |
| CC[C@H](C)[C@@H]1NC(=O)[C@H](CC(C)C)N(C)C(=O)C[C@@H](C(=O)N2CCOCC2)N(C)C(=O)[C@H](C2CCCC2)N(C)C(=O)C2(CCC2)NC(=O)[C@@H]2[C@@H](OCC3CC3)CCN2C(=O)[C@H](CCc2cc(F)c(C(F)(F)F)c(F)c2)NC(=O)CN(C)C(=O)[C@H](Cc2ccc(C(F)(F)F)cc2)N2CCCCC[C@@H](C2=O)N(C)C(=O)CN(C)C1=O [PP1010] | – | – | B (a compound having 3 or more and less than 10 is denoted as B) | B (a compound having 3 or more and less than 10 is denoted as B) |
| CCO[C@@H]1C[C@H]2C(=O)NC3(CC(C)(C)C3)C(=O)N(C)[C@@H](C(CC)CC)C(=O)N(C)[C@H](C(=O)N3CCCC3)CC(=O)N(C)[C@@H](COC)C(=O)N[C@@H]([C@@H](C)CC)C(=O)N(C)CC(=O)N(C)[C@H]3C/C=C\CCN(C3=O)[C@@H](Cc3ccc(C)cc3)C(=O)N(C)CC(=O)N[C@@H](CCc3cc(F)c(C(F)(F)F)c(F)c3)C(=O)N2C1 [PP2139] | – | – | AA (a compound having 20 or more is denoted as AA) | A (a compound having 10 or more and less than 20 is denoted as A) |
| CCC[C@H]1C(=O)N[C@@H]([C@@H](C)CC)C(=O)N(C2CC2)CC(=O)N(C)[C@H]2C/C=C\CCN(C2=O)[C@@H](Cc2ccc(C)cc2)C(=O)N(C)CC(=O)N[C@@H](CCc2cc(F)c(Cl)c(OC)c2)C(=O)N2C[C@H](OCC)C[C@H]2C(=O)NC2(CC(C)(C)C2)C(=O)N(C)[C@@H](C2CCCC2)C(=O)N(C)[C@H](C(=O)N(C)C)CC(=O)N1C [PP2871] | A (a compound having 10 or more and less than 20 is denoted as A) | A (a compound having 10 or more and less than 20 is denoted as A) | – | – |
| CCO[C@@H]1C[C@H]2C(=O)NC3(CCC3)C(=O)N(C)[C@@H](C3CCCC3)C(=O)N(C)[C@H](C(=O)N(C)C)CC(=O)N(C)[C@@H](CC(C)C)C(=O)N[C@@H]([C@@H](C)CC)C(=O)N(C)CC(=O)N(C)[C@H]3CC(C)=CCN(C3=O)[C@@H](Cc3ccc(C(F)(F)F)cc3)C(=O)N(C)CC(=O)N[C@@H](CCc3cc(F)c(C(F)(F)F)c(F)c3)C(=O)N2C1 [PP1032] | – | – | C (A compound having a KD ratio of 0.1 or more and less than 3 is denoted as C) | C (A compound having a KD ratio of 0.1 or more and less than 3 is denoted as C) |

Reference: patent publication US20240158446A1, “CYCLIC COMPOUND HAVING SELECTIVE INHIBITORY ACTION ON KRAS OVER HRAS AND NRAS” (CHUGAI SEIYAKU KABUSHIKI KAISHA, priority 2021, published 2024)
